≈ marks a conversion by molar mass, not a printed value. Like-named read-outs stand apart in the source and are kept apart here.

What all share (assay): in vitro antibacterial activity, MIC by microtitration dilution method
What all share (assay type): cell-based

The subject of test [1] is Streptococcus pneumoniae SV-1. The settings on record: SV1, read-out: Minimal Inhibitory Concentration MIC. The text has this: (§1) The compounds of the invention display antibacterial activity when tested by the microtitration dilution method as described in Heifetz, et al, Antimicr. Agents & Chemoth., 6, 124 (1974), which is incorporated herein by reference.
(§2) By use of the above referenced method, the followed minimum inhibitory concentration values (MICs in μg/ml) were obtained for representative compounds of the invention.

The subject of test [2] is Enterobacter cloacae MA 2646. The settings on record: MA2646, read-out: Minimal Inhibitory Concentration MIC.
Description: as §1, §2

Test [3] deals with Staphylococcus aureus UC-76. The following applies: UC76, read-out: Minimal Inhibitory Concentration MIC.
Description: as §1, §2

The subject of test [4] is Streptococcus faecalis MGH-2. The settings on record: Enterococcus faecalis, MGH2, read-out: Minimal Inhibitory Concentration MIC.
Description: as §1, §2

The subject of test [5] is Klebsiella pneumoniae MGH-2. The following applies: MGH2, read-out: Minimal Inhibitory Concentration MIC.
Description: as §1, §2

For a further test, the system named is Proteus rettgeri M 1771. The following applies: Providencia rettgeri, M1771, read-out: Minimal Inhibitory Concentration MIC.
Description: as §1, §2

For test [6], the system named is Staphylococcus aureus H 228. The settings on record: H228, read-out: Minimal Inhibitory Concentration MIC.
Description: as §1, §2

Test [7] relates to Pseudomonas aeruginosa UI-18. The following applies: UI18, read-out: Minimal Inhibitory Concentration MIC.
Description: as §1, §2

In the next test the test system is Escherichia coli Vogel. The following applies: read-out: Minimal Inhibitory Concentration MIC.
Description: as §1, §2

In test [8] the test system is Streptococcus pyogenes C-203. The text has this: Agents & Chemoth., 6, 124 (1974), which is incorporated herein by reference.
[9] abbreviates: C203, in vitro, Streptococcus pyogenes C-203, read-out: Minimal Inhibitory Concentration MIC.

For `O=C(O)c1cn(C2CC2)c2nc(N3CCNCC3)c(F)cc2c1=O` [Ex. 1, 1-Cyclopropyl-6-fluoro-1,4-dihydro-4-oxo-7-(1-piperazinyl)-1,8-naphthyridine-3-carboxylic acid], the MIC came out at 1.6 µg/mL (≈ 4.81 µM) in [1]; 0.1 µg/mL (≈ 0.301 µM) in test [2]; 0.4 µg/mL (≈ 1.2 µM) in [3]; 1.6 µg/mL (≈ 4.81 µM) in [4]; 0.1 µg/mL (≈ 0.301 µM) in test [5]; 0.2 µg/mL (≈ 0.602 µM) in the test on Proteus rettgeri M 1771. Also, the MIC in test [6] is 1.6 µg/mL (≈ 4.81 µM); in test [7] it was 0.2 µg/mL (≈ 0.602 µM); with Escherichia coli Vogel, ≤ 0.1 µg/mL; in test [8] (setting [9]) it was 1.6 µg/mL (≈ 4.81 µM).
Consider `CN1CCN(c2nc3c(cc2F)c(=O)c(C(=O)O)cn3C2CC2)CC1` [Ex. 2, 1-Cyclopropyl-6-fluoro-1,4-dihydro-7-(4-methyl-1-piperazinyl)-4-oxo-1,8-naphthyridine-3-carboxylic acid], for which the MIC in [1] is 6.3 µg/mL (≈ 18.2 µM); in [2], ≤ 0.1 µg/mL; in test [3] it was 0.1 µg/mL (≈ 0.289 µM); in [4], 0.8 µg/mL (≈ 2.31 µM); in [5], ≤ 0.1 µg/mL; in the test with Proteus rettgeri M 1771, 0.4 µg/mL (≈ 1.15 µM). The MIC was 0.4 µg/mL (≈ 1.15 µM) in test [6]; 0.4 µg/mL (≈ 1.15 µM) in test [7]; ≤ 0.1 µg/mL in the test with Escherichia coli Vogel; 3.1 µg/mL (≈ 8.95 µM) in test [8] (Streptococcus pyogenes, C203, read-out: Minimal Inhibitory Concentration MIC).
Consider `O=C(O)c1cn(C2CC2)c2c(F)c(N3CCNCC3)c(F)cc2c1=O` [Ex. 3, 1-Cyclopropyl-6,8-difluoro-1,4-dihydro-4-oxo-7-(1-piperazinyl)-3-quinolinecarboxylic acid], for which the MIC was 0.8 µg/mL (≈ 2.29 µM) in test [1]; ≤ 0.1 µg/mL in test [2]; ≤ 0.1 µg/mL in test [3]; 0.4 µg/mL (≈ 1.15 µM) in test [4]; ≤ 0.1 µg/mL in test [5]; ≤ 0.1 µg/mL with Proteus rettgeri M 1771. The MIC in test [6] was 0.4 µg/mL (≈ 1.15 µM); in test [7], 0.2 µg/mL (≈ 0.573 µM); with Escherichia coli Vogel it was ≤ 0.1 µg/mL; in test [8] (setting [9]), 0.4 µg/mL (≈ 1.15 µM).
Consider `O=C(O)c1cn(C2CC2)c2c(F)c(N3CCC(O)C3)c(F)cc2c1=O` (stereo not shown) [Ex. 4, 1-Cyclopropyl-6,8-difluoro-1,4-dihydro-7-(3-hydroxy-1-pyrrolidinyl)-4-oxo-3-quinolinecarboxylic acid], for which the MIC in test [1] stood at 0.4 µg/mL (≈ 1.14 µM); in test [2], 0.2 µg/mL (≈ 0.571 µM); in test [3], 0.013 µg/mL (≈ 0.0371 µM); in test [4] it was 0.1 µg/mL (≈ 0.285 µM); in test [5] it was 0.05 µg/mL (≈ 0.143 µM); with Proteus rettgeri M 1771, 0.2 µg/mL (≈ 0.571 µM). Further, the MIC in test [6] amounted to 0.025 µg/mL (≈ 0.0714 µM); in test [7], 0.8 µg/mL (≈ 2.28 µM); in the test with Escherichia coli Vogel, 0.1 µg/mL (≈ 0.285 µM); in [8] (setting [9]), 0.4 µg/mL (≈ 1.14 µM).
